We go through 27 compounds from patent publication US9693997B2, “Antiviral compounds” (priority 2013, dated 2017).

Counter-ions that a name gives are not always drawn. Some results are limits rather than exact numbers.

The subject of assay [1] is Pseudotyped HCV GT1b particles (HCVpp), entry into Huh7-high CD81 cells. Put plainly: microbe, parasite or virus in culture. The class given is cell-based, HCV GT1b Con1 strain. The note with it: Hepatitis C virus, GT1B, 72 h, read-out: HCVpp GT-1b (EC50, μM).
In assay [2] the test system is pseudotyped VSV G particles (VSVpp) in Huh7-high CD81 cells. Put plainly: microbe, parasite or virus in culture. The note with it: Vesicular stomatitis virus, 72 h, read-out: VSVpp (EC50, μM). The class given is cell-based, vesicular stomatitis virus.

The EC50 is the midpoint of the concentration-response curve. Take `CC(C)(C)OC(=O)N1CCCC(S(=O)(=O)c2ccc(-c3c(Cl)cc(Nc4n[nH]c(N)n4)cc3C(F)(F)F)cc2)C1` (stereo not drawn) [Compound 6, 3-[4′-(5-Amino-1H-[1,2,4]triazol-3-ylamino)-2′-chloro-6′-trifluoromethyl-biphenyl-4-sulfonyl]-piperidine-1-carboxylic acid tert-butyl ester]: the EC50 in assay [1] came out at 0.008 µM; in assay [2] it was 2.56 µM.
Consider `Nc1nc(Nc2cc(Cl)c(-c3ccc(S(=O)(=O)C4CNC4)cc3)c(C(F)(F)F)c2)n[nH]1` [Compound 67, N*3*-[4′-(Azetidine-3-sulfonyl)-6-chloro-2-trifluoromethyl-biphenyl-4-yl]-1H-[1,2,4]triazole-3,5-diamine hydrochloride], for which the EC50 in assay [1] was 0.107 µM; in assay [2], over 10 µM.
For the compound `Nc1nc(Nc2cc(Cl)c(-c3ccc(S(=O)(=O)CC4CCCNC4)cc3)c(C(F)(F)F)c2)n[nH]1` (stereo not drawn) [Compound 25, N*3*-[2-Chloro-4′-(piperidin-3-ylmethanesulfonyl)-6-trifluoromethyl-biphenyl-4-yl]-1H-[1,2,4]triazole-3,5-diamine; hydrochloride], the EC50 in assay [1] was 0.059 µM; in assay [2] it was over 10 µM.
Taken in the same sequence, the figures for `CNS(=O)(=O)c1ccc(-c2c(F)cc(Nc3nc(N)n[nH]3)cc2C(F)(F)F)cc1` [Compound 72, 4′-(5-Amino-2H-[1,2,4]-triazol-3-ylamino)-6′-fluoro-2′-trifluoromethyl-biphenyl-4-sulfonic acid methylamide] were 0.154 µM and over 10 µM.
Take `Nc1nc(Nc2cc(Cl)c(-c3ccc(S(=O)(=O)N4CCNCC45CC5)cc3)c(C(F)(F)F)c2)n[nH]1` [Compound 214, N3-(4′-(4,7-diazaspiro[2.5]octan-4-ylsulfonyl)-2-chloro-6-(trifluoromethyl)biphenyl-4-yl)-1H-1,2,4-triazole-3,5-diamine hydrochloride]: the values for the EC50 in assay [1] and in assay [2] were 0.048 µM and 3.36 µM, respectively.
Turning to `CC1(NS(=O)(=O)c2ccc(-c3c(Cl)cc(Nc4n[nH]c(N)n4)cc3C(F)(F)F)cc2)CNC1` [Compound 207, 4′-(5-amino-1H-1,2,4-triazol-3-ylamino)-2′-chloro-N-(3-methylazetidin-3-yl)-6′-(trifluoromethyl)biphenyl-4-sulfonamide hydrochloride], the values for the EC50 in assay [1] and in assay [2] were 0.029 µM and over 10 µM, respectively.
Taken in the same sequence, the figures for `Nc1nc(Nc2cc(Cl)c(-c3ccc(OC[C@H]4CCCN4)cc3)c(Cl)c2)n[nH]1` [Compound 272, N*3*-[2,6-Dichloro-4′-((R)-1-pyrrolidin-2-ylmethoxy)-biphenyl-4-yl]-1H-[1,2,4]triazole-3,5-diamine] were 0.147 µM and 4.49 µM.
Taken in the same sequence, the figures for `Nc1n[nH]c(Nc2cc(F)c(-c3ccc4ccccc4c3)c(C(F)(F)F)c2)n1` [Compound 249, N^5-(3-Fluoro-4-naphthalen-2-yl-5-trifluoromethylphenyl)-1H-[1,2,4]-triazole-3,5-diamine] were 0.991 µM and 17.2 µM.
As to `Nc1nc(Nc2cc(Cl)c(-c3ccc(S(=O)(=O)NC4CC(O)C4)cc3)c(C(F)(F)F)c2)n[nH]1` (stereo not drawn) [Compound 172, 4′-(5-amino-1H-1,2,4-triazol-3-ylamino)-2′-chloro-N-(3-hydroxycyclobutyl)-6′-(trifluoromethyl)biphenyl-4-sulfonamide], the values for the EC50 in assay [1] and in assay [2] were 0.032 µM and 45.1 µM, respectively.
Taken in the same sequence, the figures for `CC(C)(C)CCN1CCCC(CS(=O)(=O)c2ccc(-c3c(Cl)cc(Nc4n[nH]c(N)n4)cc3C(F)(F)F)cc2)C1` (stereo not drawn) [Compound 56, N*3*-{2-Chloro-4′-[1-(3,3-dimethyl-butyl)-piperidin-3-ylmethanesulfonyl]-6-trifluoromethyl-biphenyl-4-yl}-1H-[1,2,4]triazole-3,5-diamine; hydrochloride] were 0.046 µM and 3.74 µM.
On to `Nc1nc(Nc2cc(Cl)c(-c3ccc(S(=O)(=O)N4CCCC4)cc3)c(Cl)c2)n[nH]1` [Compound 220, N*3*-[2,6-Dichloro-4′-(pyrrolidine-1-sulfonyl)-biphenyl-4-yl]-1H-[1,2,4]triazole-3,5-diamine], for which the EC50 in assay [1] is 0.028 µM; in assay [2], 24.8 µM.
Taken in the same sequence, the figures for `Nc1nc(Nc2cc(Cl)c(-c3ccc(OC[C@H]4CCCN4)cc3)c(C(F)(F)F)c2)n[nH]1` (stereo in doubt) [Compound 279, N*3*-[6-Chloro-4′-(pyrrolidin-2-ylmethoxy)-2-trifluoromethyl-biphenyl-4-yl]-1H-[1,2,4]triazole-3,5-diamine] were 0.193 µM and 37 µM.
Taken in the same sequence, the figures for `COc1ccc(-c2c(Cl)cc(Nc3n[nH]c(N)n3)cc2C(F)(F)F)cc1S(=O)(=O)N1CCCC1` [Compound 203, N3-(2-chloro-4′-methoxy-3′-(pyrrolidin-1-ylsulfonyl)-6-(trifluoromethyl)biphenyl-4-yl)-1H-] were 0.008 µM and 10.6 µM.
In the case of `CC(C)(C)N(CC(F)(F)F)S(=O)(=O)c1ccc(-c2c(Cl)cc(Nc3n[nH]c(N)n3)cc2C(F)(F)F)cc1` [Compound 223, 4′-(5-Amino-1H-[1,2,4]triazol-3-ylamino)-6′-chloro-2′-trifluoromethyl-biphenyl-4-sulfonic acid tert-butyl-(2,2,2-trifluoro-ethyl)-amide], the EC50 was found to be 0.029 µM in assay [1] and 9.8 µM in assay [2].
Taken in the same sequence, the figures for `CC(C)(C)CCN1CCCC(S(=O)(=O)c2ccc(-c3c(Cl)cc(Nc4n[nH]c(N)n4)cc3C(F)(F)F)cc2)C1` (stereo not drawn) [Compound 17, N*3*-{2-Chloro-4′-[1-(3,3-dimethyl-butyl)-piperidine-3-sulfonyl]-6-trifluoromethyl-biphenyl-4-yl}-1H-[1,2,4]triazole-3,5-diamine; hydrochloride] were 0.043 µM and 4.9 µM.
Taken in the same sequence, the figures for `CNC(=O)c1cccc(-c2c(F)cc(Nc3nc(N)n[nH]3)cc2C(F)(F)F)c1` [Compound 248, 4′-(5-Amino-2H-[1,2,4]-triazol-3-ylamino)-6′-fluoro-2′-trifluoromethyl-biphenyl-43-carboxylic acid methylamide] were 1.02 µM and over 10 µM.
Taken in the same sequence, the figures for `CS(=O)(=O)c1cccc(-c2c(F)cc(Nc3nc(N)n[nH]3)cc2F)c1` [Compound 80, N^5-(2,6-difluoro-3′-(methylsulfonyl)biphenyl-4-yl)-1H-[1,2,4]-triazole-3,5-diamine] were 0.286 µM and over 10 µM.
As to `CC(C)(C)NS(=O)(=O)c1cccc(-c2c(Cl)cc(Nc3n[nH]c(N)n3)cc2C(F)(F)F)c1` [Compound 176, 4′-(5-amino-1H-1,2,4-triazol-3-ylamino)-N-tert-butyl-2′-chloro-6′-(trifluoromethyl)biphenyl-3-sulfonamide], the values for the 50% effective concentration (EC50) in assay [1] and in assay [2] were 0.019 µM and 9.6 µM, respectively.
Taken in the same sequence, the figures for `CC(C)(C)OC(=O)N1CCCC(Oc2ccc(-c3c(Cl)cc(Nc4n[nH]c(N)n4)cc3C(F)(F)F)cc2)C1` (stereo not drawn) [Compound 129, 3-[4′-(5-Amino-1H-[1,2,4]triazol-3-ylamino)-6′-chloro-2′-trifluoromethyl-biphenyl-4-yloxy]-piperidine-1-carboxylic acid tert-butyl ester] were 0.017 µM and 9.62 µM.
Taken in the same sequence, the figures for `CC(C)(C)NCc1ccc(-c2c(Cl)cc(Nc3n[nH]c(N)n3)cc2C(F)(F)F)cc1` [Compound 58, N*3*-[4′-(tert-Butylamino-methyl)-2-chloro-6-trifluoromethyl-biphenyl-4-yl]-1H-[1,2,4]triazole-3,5-diamine; hydrochloride] were 0.086 µM and 4.56 µM.
For `CS(=O)(=O)NCCc1ccc(-c2c(Cl)cc(Nc3n[nH]c(N)n3)cc2C(F)(F)F)cc1` [Compound 38, N-{2-[4′-(5-Amino-1H-[1,2,4]triazol-3-ylamino)-2′-chloro-6′-trifluoromethyl-biphenyl-4-yl]-ethyl}-methanesulfonamide], the figures for the 50% effective concentration (EC50) in assay [1] and in assay [2] were 0.087 µM and 7.01 µM, respectively.
Taken in the same sequence, the figures for `Nc1nc(Nc2cc(Cl)c(-c3ccc(OCC4CNC4)cc3)c(C(F)(F)F)c2)n[nH]1` [Compound 37, N*3*-[4′-(Azetidin-3-ylmethoxy)-2-chloro-6-trifluoromethyl-biphenyl-4-yl]-1H-[1,2,4]triazole-3,5-diamine; hydrochloride] were 0.107 µM and over 10 µM.
Taken in the same sequence, the figures for `Nc1nc(Nc2cc(Cl)c(-c3ccc(S(=O)(=O)CC4CCNCC4)cc3)c(C(F)(F)F)c2)n[nH]1` [Compound 40, N*3*-[2-Chloro-4′-(piperidin-4-ylmethanesulfonyl)-6-trifluoromethyl-biphenyl-4-yl]-1H-[1,2,4]triazole-3,5-diamine; hydrochloride] were 0.073 µM and 31.7 µM.
Taken in the same sequence, the figures for `COCC(=O)Nc1ccc(-c2c(Cl)cc(Nc3n[nH]c(N)n3)cc2Cl)cc1` [Compound 73, N-(4′-(5-amino-1H-[1,2,4]triazol-3-ylamino)-2′,6′-dichlorobiphenyl-4-yl)-2-methoxyacetamide] were 0.113 µM and 24.1 µM.
In the case of `Nc1nc(Nc2cc(Cl)c(-c3ccc(S(=O)(=O)NCCO)cc3)c(Cl)c2)n[nH]1` [Compound 160, 4′-(5-Amino-1H-[1,2,4]triazol-3-ylamino)-2′,6′-dichloro-biphenyl-4-sulfonic acid (2-hydroxy-ethyl)-amide], the EC50 in assay [1] was 0.063 µM; in assay [2] it was 10.6 µM.
Take `N#Cc1cccc(-c2c(F)cc(Nc3nc(N)n[nH]3)cc2C(F)(F)F)c1` [Compound 89, 4′-(5-Amino-2H-[1,2,4]-triazol-3-ylamino)-6′-fluoro-2′-trifluoromethyl-biphenyl-3-carbonitrile]: the EC50 in assay [1] stood at 25.1 µM; in assay [2] it was 33.3 µM.
`Nc1nc(Nc2cc(Cl)c(-c3ccc(F)c(C(=O)NCCO)c3)c(C(F)(F)F)c2)n[nH]1` [Compound 294, 4′-(5-amino-1H-1,2,4-triazol-3-ylamino)-2′-chloro-4-fluoro-N-(2-hydroxyethyl)-6′-(trifluoromethyl)biphenyl-3-carboxamide]: the EC50 in assay [1] stood at 0.544 µM; in assay [2], 38.3 µM.
